The text below walks through data of ChEMBL document CHEMBL1201862, “PubChem BioAssay data set” (2004).

Test systems include SK-MEL-5; SK-MEL-28; OVCAR-8; UO-31; SN12C; CAKI-1; EKVX; KM12; RPMI-8226; HL-60; SF-268; NCI/ADR-RES; 786-0; UACC-62; Hs-578T; SNB-75; NCI-H226; HT-29; K562.
Holding throughout (assay): NCI anticancer screen, dose series, 48 h

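Interpolation was linear, between the two tested concentrations surrounding the appropriate level; five concentrations were tested over 48 hours in 96-well plates. GI50 is the concentration that inhibits growth by half.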 Active and inactive are the calls of the source. Rule as the data show it: active = GI50 up to about 1.1 µM and inactive = higher. Where only a bound is given, the exact number is not on record here.

For `O=C(O)c1nc2ccccc2nc1NCc1ccc(F)cc1`, the GI50 with SK-MEL-5 was 35.8 µM (inactive); in the experiment with SK-MEL-28, > 100 µM (inactive); with OVCAR-8, 53.2 µM (inactive); in the experiment on UO-31, 45.3 µM (inactive); in the experiment with SN12C, > 100 µM (inactive); in the experiment with CAKI-1 it was 62.4 µM (inactive). The GI50 with EKVX was 45.8 µM (inactive); in the experiment with KM12, 47.1 µM (inactive); with RPMI-8226 it was 60.4 µM (inactive); with HL-60 it was 45.8 µM (inactive); in the experiment on SF-268 it was 57 µM (inactive); with NCI/ADR-RES it was 30.2 µM (inactive). The GI50 in the experiment with 786-0 was 42.8 µM (inactive); in the experiment on UACC-62, > 100 µM (inactive); with Hs-578T, 61.8 µM (inactive); with SNB-75 it was > 100 µM (inactive); in the experiment on NCI-H226, 51.6 µM (inactive); in the experiment with HT-29, 69.5 µM (inactive). Besides, the GI50 with K562 was 56.1 µM (inactive).
Turning to `COC1(OC)N=C(N)C2(C#N)/C(=N/N(C)C)CC(C)C12C#N` (stereo not given), the GI50 in the experiment on SK-MEL-5, with SK-MEL-28, in the experiment with OVCAR-8, with UO-31, in the experiment with SN12C and in the experiment with CAKI-1 was > 100 µM (inactive) in each case. For the same compound, the GI50 is > 100 µM (inactive) in the experiment with EKVX; > 100 µM (inactive) in the experiment on KM12; > 10 µM (inactive) in the experiment with RPMI-8226; > 100 µM (inactive) with HL-60; > 100 µM (inactive) with SF-268; > 100 µM (inactive) in the experiment on NCI/ADR-RES. Moreover, the GI50 in the experiment with 786-0 is > 100 µM (inactive); in the experiment with UACC-62, > 100 µM (inactive); in the experiment with Hs-578T, > 100 µM (inactive); in the experiment on SNB-75 it was 71.9 µM (inactive); with NCI-H226, > 100 µM (inactive); in the experiment on HT-29 it was > 100 µM (inactive). Also, the GI50 in the experiment on K562 is > 100 µM (inactive).
In the case of `O=c1[nH]c2nccn2c2c1SCCN2`, the GI50 in the experiment with SK-MEL-5, in the experiment on SK-MEL-28, in the experiment with OVCAR-8, with SN12C, in the experiment on CAKI-1 and in the experiment with EKVX was > 100 µM (inactive) in each case. For the same compound, the GI50 with KM12, in the experiment with RPMI-8226, in the experiment on HL-60, with SF-268, in the experiment with NCI/ADR-RES and in the experiment with 786-0 was > 100 µM (inactive) each time. The GI50 with UACC-62, with Hs-578T, with SNB-75, in the experiment with NCI-H226, in the experiment on HT-29 and in the experiment on K562 was > 100 µM (inactive) in each case.
With `[O-][S@@+]1c2ccc3ccccc3c2N[C@@H]2[C@H]1[C@H]1C=C[C@@H]2C1`, the GI50 with SK-MEL-5 was 28 µM (inactive); in the experiment on SK-MEL-28, 98.6 µM (inactive); in the experiment with OVCAR-8 it was 35.8 µM (inactive); with UO-31, 64.4 µM (inactive); in the experiment with SN12C it was 53.7 µM (inactive); in the experiment on CAKI-1 it was > 100 µM (inactive). For the same compound, the GI50 in the experiment on EKVX is > 100 µM (inactive); in the experiment on KM12, 31.1 µM (inactive); in the experiment with RPMI-8226, 31.6 µM (inactive); in the experiment on HL-60, 24 µM (inactive); in the experiment with SF-268, 61 µM (inactive); with NCI/ADR-RES it was 25.8 µM (inactive). Besides, the GI50 is 64.3 µM (inactive) in the experiment with 786-0; 84.1 µM (inactive) in the experiment with UACC-62; 30.1 µM (inactive) in the experiment on Hs-578T; 16.9 µM (inactive) in the experiment on SNB-75; 50.8 µM (inactive) in the experiment on NCI-H226; 34.9 µM (inactive) in the experiment with HT-29. In the experiment with K562, the GI50 is 37.1 µM (inactive).
As for `CCCC[C@@H]1CCN2C[C@@H](O)[C@@H](O)[C@@H]2[C@H]1O`, the GI50 in the experiment on SK-MEL-5, with SK-MEL-28, in the experiment on OVCAR-8, in the experiment with UO-31, with SN12C and in the experiment on CAKI-1 was > 100 µM (inactive) each time. In addition, the GI50 in the experiment with EKVX, in the experiment on KM12, in the experiment with RPMI-8226, in the experiment on HL-60, in the experiment on SF-268 and in the experiment with NCI/ADR-RES was > 100 µM (inactive) in each case. For the same compound, the GI50 was > 100 µM (inactive) with 786-0; > 100 µM (inactive) with UACC-62; > 100 µM (inactive) in the experiment on Hs-578T; 89.9 µM (inactive) in the experiment on SNB-75; > 100 µM (inactive) in the experiment on NCI-H226; > 100 µM (inactive) in the experiment with HT-29. In addition, the GI50 in the experiment on K562 is > 100 µM (inactive).
Take `CSc1ccc(/C=C/C(=O)c2nc3ccccc3[nH]2)cc1`: the GI50 is 21.2 µM (inactive) in the experiment on SK-MEL-5; 31.6 µM (inactive) in the experiment with SK-MEL-28; 37.2 µM (inactive) in the experiment with OVCAR-8; 3.66 µM (inactive) in the experiment on UO-31; 29.2 µM (inactive) in the experiment on SN12C; 2.26 µM (inactive) in the experiment with CAKI-1. Moreover, the GI50 in the experiment with EKVX was 17.8 µM (inactive); with KM12, 14.5 µM (inactive); with RPMI-8226, 3.02 µM (inactive); in the experiment with HL-60 it was 12.1 µM (inactive); in the experiment with SF-268 it was 26.9 µM (inactive); in the experiment on NCI/ADR-RES, 20.1 µM (inactive). Also, the GI50 is 12.7 µM (inactive) in the experiment with 786-0; 14.2 µM (inactive) with UACC-62; 37.2 µM (inactive) in the experiment on Hs-578T; 13.2 µM (inactive) in the experiment with SNB-75; 13.6 µM (inactive) with NCI-H226; 15.7 µM (inactive) with HT-29. Moreover, the GI50 with K562 was 4.41 µM (inactive).
With `Oc1cc(-c2ccccc2)cn2c1nc1ccccc12`, the GI50 in the experiment on SK-MEL-5 was 0.476 µM (active); with SK-MEL-28, 4.31 µM (inactive); in the experiment with OVCAR-8, 2.42 µM (inactive); in the experiment with UO-31, 2.64 µM (inactive); in the experiment on SN12C, 4.06 µM (inactive); in the experiment with CAKI-1, 2.91 µM (inactive). The GI50 with EKVX is > 94.2 µM (inactive); with KM12, 1.5 µM (inactive); in the experiment with RPMI-8226, 2.3 µM (inactive); with HL-60, 0.482 µM (active); with SF-268 it was 3.92 µM (inactive); with NCI/ADR-RES, 1.21 µM (inactive). The GI50 was 3.21 µM (inactive) in the experiment on 786-0; 0.33 µM (active) with UACC-62; 2.19 µM (inactive) with Hs-578T; > 36.3 µM (inactive) in the experiment with SNB-75; > 25.4 µM (inactive) in the experiment on NCI-H226; 8.63 µM (inactive) in the experiment on HT-29. Also, in the experiment on K562, the GI50 is 0.525 µM (active).
`Clc1ccc(-c2nnc(C34CC5CC(CC(C5)C3)C4)o2)cc1`: the GI50 was > 100 µM (inactive) in the experiment with SK-MEL-5; > 100 µM (inactive) in the experiment with SK-MEL-28; > 100 µM (inactive) in the experiment with OVCAR-8; 3.78 µM (inactive) in the experiment with UO-31; > 100 µM (inactive) in the experiment with SN12C; > 100 µM (inactive) in the experiment with CAKI-1. Further, the GI50 with EKVX, in the experiment with RPMI-8226, with HL-60, in the experiment on SF-268, in the experiment with NCI/ADR-RES and in the experiment on 786-0 was > 100 µM (inactive) in each case. Besides, the GI50 with UACC-62, with Hs-578T, in the experiment on SNB-75, in the experiment on NCI-H226, in the experiment with HT-29 and in the experiment on K562 was > 100 µM (inactive) throughout.
